Assay results published in patent US4965280A, “Antifungal carbinols” (E. I. Du Pont de Nemours and Company, priority 1989, dated 1990).
≈ marks a conversion by molar mass, not a printed value.

Assays:
[1] = system: RICE JAP EFF; experiment: Test C rice paddy; format: in vivo, Japonica rice; conditions: Oryza sativa, 504 h, 21 days, read-out: plant response; for pest or weed control at 64 g/ha: 0064 G/HA; for pest or weed control at 125 g/ha: 0125 G/HA; for pest or weed control at 250 g/ha: 0250 G/HA; for pest or weed control at 500 g/ha: 0500 G/HA
Method in brief: (§1)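 Transplanted paddy test in flooded silt loam: Japonica and Indica rice at 2.0–2.5 leaf stage, water plantain, Scirpus and Cyperus seedlings or sprouted tubers, barnyardgrass from seed. Water raised to 3 cm 3–4 days after planting; compound in nonphytotoxic solvent added to paddy water within 24 h. Greenhouse.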

[2] = system: SCIRPUS; experiment: Test C rice paddy; format: in vivo, Scirpus paludosus; conditions: Bolboschoenus maritimus, 504 h, 21 days, read-out: plant response; for pest or weed control at 64 g/ha: 0064 G/HA; for pest or weed control at 125 g/ha: 0125 G/HA; for pest or weed control at 250 g/ha: 0250 G/HA; for pest or weed control at 500 g/ha: 0500 G/HA
Method in brief: as §1

[3] = system: ARROWHEAD; experiment: Test C rice paddy; format: in vivo, Sagittaria spp.; conditions: Sagittaria, 504 h, 21 days, read-out: plant response; for pest or weed control at 64 g/ha: 0064 G/HA; for pest or weed control at 125 g/ha: 0125 G/HA; for pest or weed control at 250 g/ha: 0250 G/HA; for pest or weed control at 500 g/ha: 0500 G/HA
Method in brief: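 In this flooded-paddy assay, rice and weeds grew in saturated silt loam under greenhouse conditions, and the test compound was dosed into the 3 cm standing water shortly after flooding.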

[4] = system: Rhizoctonia solani; experiment: Example K cotton blight; format: in vivo; conditions: 336 h, 5 kg/ha, read-out: disease control rating, Ex. K
Procedure: […] Seeds and soil were then inoculated with a mixture of sand, cereal and mycelium of the fungus Rhizoctonia solani, causal agent of cotton blight, and incubated in a growth chamber at 30° C. for 14 days. Disease ratings were then made.

[5] = system: Venturia inaequalis; experiment: Example A apple scab; format: in vivo; conditions: read-out: disease control rating, Ex. A
Method in brief: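 Test compounds were dissolved in acetone (6% of final volume) and suspended at 100 or 20 ppm in purified water containing 250 ppm of the surfactant TREM 014 (polyhydric alcohol esters). Apple seedlings were sprayed with this suspension to the point of run-off.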

[6] = system: Aspergillus fumigatus ATCC 28214; experiment: In vitro antifungal MIC, microtiter broth dilution; conditions: Aspergillus fumigatus, ATCC28214, 24 h, read-out: MIC values, A. fumigatus, 30°, 24 hours
[7] = system: WATER PLAINTAIN; experiment: Test C rice paddy; format: in vivo, Alisma trivale; conditions: 504 h, 21 days, read-out: plant response; for pest or weed control at 64 g/ha: 0064 G/HA; for pest or weed control at 125 g/ha: 0125 G/HA; for pest or weed control at 250 g/ha: 0250 G/HA; for pest or weed control at 500 g/ha: 0500 G/HA
Method in brief: as §1

[8] = system: Plasmorpara viticola; experiment: Example I grape downy mildew; format: in vivo; conditions: read-out: disease control rating, Ex. I
Method in brief: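 Grape seedlings sprayed to run-off; test suspension 100 or 20 ppm compound, acetone 6% v/v final, 250 ppm TREM 014 in purified water.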

[9] = system: Phytophthora infestans; experiment: whole plant or invertebrate; format: in vivo; conditions: Phytophthora infestans, in Solanum lycopersicum, read-out: disease control rating, Ex. H, 100 PPM
[10] = system: Rhizoctonia solani; experiment: Example F rice sheath blight; format: in vivo; conditions: Rhizoctonia solani, 144 h, read-out: disease control rating, Ex. F
Method in brief: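 Compounds, dissolved in acetone at 6% of final volume, were suspended at 100 or 20 ppm in purified water with 250 ppm polyhydric alcohol ester surfactant (TREM 014). Rice seedlings were sprayed with this suspension to run-off.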

[11] = system: RICE INDICA EFF; experiment: Test C rice paddy; format: in vivo; conditions: Oryza sativa, 504 h, 21 days, read-out: plant response; for pest or weed control at 64 g/ha: 0064 G/HA; for pest or weed control at 125 g/ha: 0125 G/HA; for pest or weed control at 250 g/ha: 0250 G/HA; for pest or weed control at 500 g/ha: 0500 G/HA
Method in brief: as §1

[12] = system: Fusarium oxysporum f. sp. cucumerinum; experiment: Example L cucumber wilt; format: in vivo; conditions: 336 h, 5 kg/ha, read-out: disease control rating, Ex. L
Procedure: […] Seeds and soil were then inoculated with a mixture of sand, cereal and mycelium of the fungus Fusarium oxysporum f. sp. cucumerinum, causal agent of cucumber wilt, and incubated in a growth chamber at 30° C. for 14 days. Disease ratings were then made.

[13] = system: Erysiphe graminis f. sp. tritici; experiment: Example D wheat powdery mildew; format: in vivo; conditions: Blumeria graminis, 144 h, read-out: disease control rating, Ex. D
Method in brief: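 Compounds were dissolved in acetone (6% of final volume), then suspended at 100 or 20 ppm in purified water containing 250 ppm TREM 014 surfactant. Wheat seedlings were sprayed with this suspension to run-off.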

[14] = system: YELLOW NUTSEDGE; experiment: Test C rice paddy; format: in vivo, Cyperus esculentus; conditions: 21 days
From the text: Sixteen cm diameter Airlite plastic pots were partially filled with Tama slit loam soil and the soil saturated with water. Japonica and Indica rice seedlings a the 2.0 to 2.5 leaf stage were transplanted into 1/3 of the pots. Into another third of the pots were transplanted seedling or sprouted tubers of water plantain (Alisma trivale), Scripus (Scirpus paludosus), Cyperus (Cyperus esculentus), and arrowhead (Sagittaria spp.). The remaining pots were planted with barnyardgrass (Echinochloa crusgalli) seeds and sprouted tubes of water chestnut (Eleocharis spp.). These weeds all represent major rice weeds or genera of weeds important in rice. Three to four days after planting, the water level was raised to 3 cm (about 1200 ml/pot) and maintained a this level throughout the test. Chemical treatments were applied directly to the paddy water, within 24 hours of raising the water, after being formulated in a nonphytotoxic solvent. The pots were maintained in the greenhouse.

[15] = system: Pythium aphanadermatum; experiment: Example J cucumber damping off; format: in vivo; conditions: Pythium, 336 h; 5 kg/ha; read-out: disease control rating, Ex. J
Method in brief: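 This cucumber damping-off test used soil and seeds infested with a sand–cereal preparation carrying mycelium of Pythium aphanadermatum. Incubation took place in a growth chamber held at 30° C. for 14 days. Afterwards, the extent of disease was scored as a disease control rating.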

[16] = system: Candida albicans ATCC 11651; experiment: In vitro antifungal MIC, microtiter broth dilution; conditions: Candida albicans, ATCC11651, 24 h, read-out: MIC values, C. albicans, 30°, 24 hours

`C=C(c1ccccc1Cl)C(O)(Cn1cncn1)c1ccc(Cl)cc1Cl` (stereo not drawn) [Example 33, 2-(2,4-Dichlorophenyl)-3-(2-chlorophenyl)-1-(1H-1,2,4-triazol-1-yl)-3-buten-2-ol] showed a pest or weed control at 64 g/ha [1] of 0%, a pest or weed control at 125 g/ha [1] of 0% and a pest or weed control at 250 g/ha [1] of 0%. The pest or weed control at 500 g/ha [1] was 30%, the pest or weed control at 1000 g/ha [1] was 60% and the pest or weed control at 64 g/ha [2] was 0%. It also gave a pest or weed control at 125 g/ha [2] of 0%, a pest or weed control at 250 g/ha [2] of 0% and a pest or weed control at 500 g/ha [2] of 0%. For the same compound, the pest or weed control at 1000 g/ha [2] was 0%, the pest or weed control at 64 g/ha [3] was 0% and the pest or weed control at 125 g/ha [3] was 0%. For the same compound, the pest or weed control at 250 g/ha [3] was 0%, the pest or weed control at 500 g/ha [3] was 0% and the pest or weed control at 1000 g/ha [3] was 0%. For the same compound, the pest or weed control at 5000 g/ha [4] was 0%, the pest or weed control at 20 ppm ([5]; 20 PPM) was 47% and the MIC [6] was 0.03 µg/mL (≈ 0.076 µM). It also gave a pest or weed control at 64 g/ha [7] of 0%, a pest or weed control at 125 g/ha [7] of 0% and a pest or weed control at 250 g/ha [7] of 0%. It also gave a pest or weed control at 500 g/ha [7] of 0%, a pest or weed control at 1000 g/ha [7] of 0% and a pest or weed control at 100 ppm [8] of 24%. The pest or weed control at 100 ppm [9] was 0%, the pest or weed control at 20 ppm ([10]; 20 PPM) was 29% and the pest or weed control at 100 ppm [10] was 60%. For the same compound, the pest or weed control at 64 g/ha [11] was 0%, the pest or weed control at 125 g/ha [11] was 0% and the pest or weed control at 250 g/ha [11] was 0%. It also gave a pest or weed control at 500 g/ha [11] of 30%, a pest or weed control at 1000 g/ha [11] of 70% and a pest or weed control at 5000 g/ha [12] of 0%. It also gave a pest or weed control at 20 ppm ([13]; 20 PPM) of 89%, a plant response ([14]; 0064 G/HA) of 0 and a plant response ([14]; 0125 G/HA) of 0. For the same compound, the plant response ([14]; 0250 G/HA) was 0, the plant response ([14]; 0500 G/HA) was 0 and the plant response ([14]; 1000 G/HA) was 40. It also gave a pest or weed control at 5000 g/ha [15] of 0% and an MIC [16] of 0.03 µg/mL (≈ 0.076 µM).
`C=C(c1ccccc1Cl)C(O)(Cn1cncn1)c1ccc(F)cc1F` (stereo not drawn) [Example 35] was tested, and the pest or weed control at 64 g/ha [1] was 0%, the pest or weed control at 125 g/ha [1] was 0% and the pest or weed control at 250 g/ha [1] was 0%. The pest or weed control at 500 g/ha [1] was 0%, the pest or weed control at 1000 g/ha [1] was 20% and the pest or weed control at 64 g/ha [2] was 0%. The pest or weed control at 125 g/ha [2] was 0%, the pest or weed control at 250 g/ha [2] was 0% and the pest or weed control at 500 g/ha [2] was 0%. For the same compound, the pest or weed control at 1000 g/ha [2] was 50%, the pest or weed control at 64 g/ha [3] was 0% and the pest or weed control at 125 g/ha [3] was 0%. It also gave a pest or weed control at 250 g/ha [3] of 40%, a pest or weed control at 500 g/ha [3] of 50% and a pest or weed control at 1000 g/ha [3] of 95%. It also gave a pest or weed control at 5000 g/ha [4] of 0%, a pest or weed control at 100 ppm ([5]; 100 PPM) of 100% and an MIC [6] of 0.1 µg/mL (≈ 0.276 µM). For the same compound, the pest or weed control at 64 g/ha [7] was 0%, the pest or weed control at 125 g/ha [7] was 0% and the pest or weed control at 250 g/ha [7] was 40%. The pest or weed control at 500 g/ha [7] was 40%, the pest or weed control at 1000 g/ha [7] was 60% and the pest or weed control at 100 ppm [8] was 26%. For the same compound, the pest or weed control at 100 ppm [9] was 0%, the pest or weed control at 100 ppm [10] was 100% and the pest or weed control at 64 g/ha [11] was 0%. It also gave a pest or weed control at 125 g/ha [11] of 0%, a pest or weed control at 250 g/ha [11] of 0% and a pest or weed control at 500 g/ha [11] of 0%. The pest or weed control at 1000 g/ha [11] was 20%, the pest or weed control at 5000 g/ha [12] was 0% and the pest or weed control at 100 ppm ([13]; 100 PPM) was 100%. For the same compound, the plant response ([14]; 0064 G/HA) was 0, the plant response ([14]; 0125 G/HA) was 0 and the plant response ([14]; 0250 G/HA) was 60. The plant response ([14]; 0500 G/HA) was 95, the plant response ([14]; 1000 G/HA) was 100 and the pest or weed control at 5000 g/ha [15] was 0%. It also gave an MIC [16] of 0.03 µg/mL (≈ 0.0829 µM).
